This note sets out measurements from patent EP0569777A2 (Bayer Corporation, priority 1992, dated 1993).

Entries after “also recorded” stand apart in the source; their conditions may differ. Where a SMILES comes first, the peptide text is derived from it. [ ]: non-standard residue; d: D form. The star is where a group is joined. Sta = CC(C)C[C@H](N)[C@@H](O)CC(=O)O; Isovaleryl = CC(C)CC(=O)*

What all share (type): biochemical
For assay [1], the system named is human AD brain fraction P2 V APP degrading activity. Put plainly: Immunoblot assay of APP 695 degradation by Mono-Q pool P2 V. The conditions noted are these: 11.5 kDa fragment, trial A,B, Pepstatin A 400µM (methanolic), pH 6.5, 24 hrs, 37°C.
Experimental: ii) Solubilization. The membranous control or AD subfractions (P-2 or M) were solubilized by adjusting to the following conditions: 2% (v/v) Triton X-100 containing 50 mM Tris HCl buffer, pH 7.5. After stirring at 4°C for 3.5 hrs, the suspensions were centrifuged at 105,000 g x 60 min in a Beckman 70 Ti rotor. The following final protein concentrations were used in solubilization, for P-2 (3.9 to 4.0 mg/ml); and for M (1.4 to 1.6 mg/ml). Solubilized supernatants were stored at -70°C for later use. The soluble fraction was not treated with detergent but rather was adjusted to 50 mM in Tris HCl, pH 7.5, by the addition of stock 1M buffer. iii) Ion-exchange chromatography. Chromatography was performed using a Gilson gradient liquid chromatograph (model 305 and 306 pumps) equipped with a 50 ml Rheodyne stainless steel loop injector model 7125, and connected to a Mono Q HR 10/10 column (Pharmacia, Piscataway, NJ). Absorbance of column effluent was monitored at 280 nm using a Pharmacia UV-M detector and a Kippen-zonen chart recorder. […] In the initial studies, eluted fractions were monitored for A280 nm, total protein (Bradford assay), and peptidase activity (as decsribed in Examples 2 and 3). […] Fractions were monitored for A 280 nm, total protein (Bradford assay), peptidase activity, and activity for C-terminal processing of recombinant APP. […]
Assay [2] addresses human cathepsin D (human liver, Cal Biochem, catalog # 219401) (Homo sapiens, UniProt P07339). Put plainly: Immunoblot assay of holo-APP 695 degradation by purified cathepsin D. Here is the method: The numbers indicate the time (hr) after initiation of reactions. Reactions were initiated at 37°C by the addition of APP to achieve the following initial component concentrations: APP (82 nM), cathepsin D (9.2 ug/ml),in […] Mes buffer pH 6.5. Samples without pepstatin received the same amount of solvent (1.3 % v/v methanol). At t=0, 43, 84, 140 and 215 minutes aliquots (15 ul) were removed mixed with 7.5 ul of SDS-PAGE sample buffer and subject to immunoblot analysis using the Rabbit antiserum to the APP C-terminal domain. The 18 and 28 kDa reaction products are located with arrows.
Reactions were initiated at 37°C by APP addition thereby achieving the following initial component concentrations: APP (448 nM), cathepsin D (30 nM), and when included pepstatin A (97.2 µm) in 83 mM sodium acetate buffer pH 5.0. At the indicated time points, aliquots (20 ul), were removed mixed with 10 ul of 3X SDSPAGE sample buffer and subjected to immunoblot analysis using monoclonal antibody 286.8A (1/100). Reactions were performed in the absence (-) or presence (+) of pepstatin A (delivered in methanol). All samples received 2.7 % (v/v) methanol. Lanes 1 and 12 contained prestained Mr markers, Lanes 10 and 18 contained C-100 Mr marker. Lanes 11 and 13 contained APP incubated without cathepsin D for zero and 21hr respectively. The main product fragments are indicated with arrows. […]

Assay [3] has as its target human brain P-2 enzyme (peak B), aspartic protease identified as cathepsin D (Homo sapiens, UniProt P07339). Briefly: Immunoblot assay of holo-APP 695 degradation by P-2 enzyme (peak B, 15-25 kDa gel filtration region). The conditions noted are these: 100 uM pepstatin A in DMSO; P-2 enzyme 2.54 ug/ml, APP 168 nM, Mes buffer pH 6.5, 26 hr, 37°C; Figure 7. Here is the method: Reactions (32 ul) were initiated at 37°C by APP addition to achieve the following initial component conditions: P-2 enzyme (2.54 ug/ml) fraction from the 15-25 kDa region of gel filtration (Figure 6); APP (168 nM), in 96 mM Mes buffer pH 6.5. Reactions were terminated after 26 hr by addition of 15 ul of 3X sample buffer, and subject to immunoblot analysis using a 1/1000 dilution of the rabbit polyclonal antiserum to the APP C-terminus. […] The effect of incubation of APP for 0hr (lanes 2 and 30) and 26 hr (lanes 3 and 28) are also shown. Lanes 6, 10, 14, 17, 21 and 25 contained enzyme alone. Lanes 4, 8, 12, 19, 23, and […] contained the C-100 standard. Prestained molecular weight markers are present in lanes 1 and 29. The 18 and 28 kDa C-terminal product fragments are located with arrows.
ii) Solubilization. […] Absorbance of column effluent was monitored at 280 nm using a Pharmacia UV-M detector and a Kippen-zonen chart recorder. […] In the initial studies, eluted fractions were monitored for A280 nm, total protein (Bradford assay), and peptidase activity (as decsribed in Examples 2 and 3). […] Fractions were monitored for A 280 nm, total protein (Bradford assay), peptidase activity, and activity for C-terminal processing of recombinant APP. […]

Chain of human cathepsin D (human liver, Cal Biochem, catalog # 219401) (P07339 with tags, fused parts or gaps): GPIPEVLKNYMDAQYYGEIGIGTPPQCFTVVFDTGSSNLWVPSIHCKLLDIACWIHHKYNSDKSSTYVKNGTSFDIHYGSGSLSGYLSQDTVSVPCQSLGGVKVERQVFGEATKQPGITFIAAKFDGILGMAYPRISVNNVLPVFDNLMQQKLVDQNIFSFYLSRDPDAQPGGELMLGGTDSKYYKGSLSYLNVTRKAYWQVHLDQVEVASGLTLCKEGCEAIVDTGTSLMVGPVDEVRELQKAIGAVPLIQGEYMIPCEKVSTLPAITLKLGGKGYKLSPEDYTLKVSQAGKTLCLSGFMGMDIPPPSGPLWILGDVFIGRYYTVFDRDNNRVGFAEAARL
Chain of human brain P-2 enzyme (peak B), aspartic protease identified as cathepsin D (P07339 with tags, fused parts or gaps): as above

With `CC(C)CC(=O)N[C@H](C(=O)N[C@H](C(=O)N[C@@H](CC(C)C)[C@@H](O)CC(=O)N[C@@H](C)C(=O)N[C@@H](CC(C)C)[C@@H](O)CC(=O)O)C(C)C)C(C)C` [pepstatin A] (Isovaleryl-VV[Sta]A[Sta]-OH), the “Inhibitors (pH 6.5): compounds causing complete inhibition are listed” value in assay [1] is “completely; also recorded: pepstatin A aprotinin”. The “Inhibition of cathepsin D catalysed APP cleavage (18 and 28 kDa C-terminal products)” value in assay [2] (86 uM pepstatin A, APP 82 nM, cathepsin D 9.2 ug/ml, Mes buffer pH 6.5, 37°C, Figure 8) was “Inhibition”. In addition, the “Inhibition of cathepsin D catalysed APP degradation (beta-amyloid immunoreactive bands, Figure 13)” value in assay [2] (pepstatin A 97.2 µm, APP 448 nM, cathepsin D 30 nM, sodium acetate buffer pH 5.0, 37°C) is reported as “inhibited”. The “Inhibition of peak B APP degrading activity” value in assay [3] was “quantitative inhibition”.
